Test results published in patent US20210060033A1, “ORALLY ADMINISTERED COMBINATIONS OF BETA-LACTAM ANTIBIOTICS AND AVIBACTAM DERIVATIVES FOR TREATING BACTERIAL INFECTIONS” (priority 2019, published 2021).
Read-outs that look alike come from different tables or passages of the source.

Experiments:
[1] = in vivo; cited from earlier work
[2] = dog, in vivo; cited from earlier work
[3] = cynomolgus monkey, in vivo; cited from earlier work
[4] = rat, in vivo, po; cited from earlier work
[5] = tested on: 314 Enterobacteriaceae; format: cell-based; conditions: for MIC90 with addition of avibactam: all isolates combined, avibactam at a fixed concentration of 4 μg/mL; for Estimated MIC90: Enterobacteria n = 314 (all isolates combined), avibactam or clavulanic acid fixed at 4 μg/mL in combinations
[6] = tested on: OXA-positive isolates (n = 22); format: cell-based, Enterobacteriaceae; conditions: for Estimated MIC90: OXA n = 22, avibactam or clavulanic acid fixed at 4 μg/mL in combinations; for MIC90 with addition of avibactam: OXA-positive isolates, avibactam 4 μg/mL
[7] = tested on: ESBL-positive isolates (n = 28); format: cell-based, Enterobacteriaceae; conditions: ESBL n = 28; avibactam or clavulanic acid fixed at 4 μg/mL in combinations
[8] = tested on: pAmpC (PlasAmpC) isolates (n = 20); format: cell-based, Enterobacteriaceae; conditions: pAmpC n = 20; avibactam or clavulanic acid fixed at 4 μg/mL in combinations
[9] = tested on: KPC-positive isolates (n = 23); format: cell-based, Enterobacteriaceae; conditions: for Estimated MIC90: KPC n = 23, avibactam or clavulanic acid fixed at 4 μg/mL in combinations; for MIC90 with addition of avibactam: KPC-positive isolates, avibactam 4 μg/mL
[10] = Single ascending oral dose phase 1 study of avibactam derivative (3) (Example 3), avibactam PK; format: in vivo, human; conditions: avibactam in plasma, fed
Description: The pharmacokinetics of avibactam provided as an orally administered avibactam derivative was determined on healthy human volunteers. A randomized, double-blind, placebo-controlled single ascending dose phase 1 study was undertaken with healthy male and female adults. […] Plasma and urine PK samples were collected prior to dosing and at frequent intervals after dosing. […] FIG. 12 also provides an overall estimate of F for the study population (n=24) presented as a conventional box-whisker graphic (median, interquartile range [25-75%] and Tukey whiskers).

[11] = Oral administration of avibactam derivative (3) to healthy human volunteers (Example 2), plasma avibactam; format: in vivo; conditions: for AUC0-INF: unit not given
Description: The pharmacokinetics of avibactam provided as an orally administered avibactam derivative was determined on healthy human volunteers.
[…] The plasma concentration of avibactam was measured. The free avibactam concentration was adjusted for from 5% to 8% protein binding (AUCfree=AUC0-inf×[…]).

[12] = avibactam, oral 300 mg of avibactam derivative (3), healthy

In the case of `CC(C)(COS(=O)(=O)ON1C(=O)N2C[C@H]1CC[C@H]2C(N)=O)C(=O)OCc1ccccc1` [avibactam derivative (4), benzyl 3-(((((1R,2S,5R)-2-carbamoyl-7-oxo-1,6-diazabicyclo[3.2.1]octan-6-yl)oxy)sulfonyl)oxy)-2,2-dimethylpropanoate], the “oral bioavailability (% F)” value [1] is given as “greater than 10 % F”.

In the case of `COC(=O)C(C)(C)COS(=O)(=O)ON1C(=O)N2C[C@H]1CC[C@H]2C(N)=O` [avibactam derivative (10), methyl 3-(((((1R,2S,5R)-2-carbamoyl-7-oxo-1,6-diazabicyclo[3.2.1]octan-6-yl)oxy)sulfonyl)oxy)-2,2-dimethylpropanoate], the “oral bioavailability (% F)” value [1] is given as “greater than 10 % F”.

In the case of `CC(C)OC(=O)C(C)(C)COS(=O)(=O)ON1C(=O)N2C[C@H]1CC[C@H]2C(N)=O` [avibactam derivative (11), isopropyl 3-(((((1R,2S,5R)-2-carbamoyl-7-oxo-1,6-diazabicyclo[3.2.1]octan-6-yl)oxy)sulfonyl)oxy)-2,2-dimethylpropanoate], the “oral bioavailability (% F)” value [1] is given as “greater than 10 % F”.

For `CCCCCCOC(=O)C(C)(C)COS(=O)(=O)ON1C(=O)N2C[C@H]1CC[C@H]2C(N)=O` [avibactam derivative (12), hexyl 3-(((((1R,2S,5R)-2-carbamoyl-7-oxo-1,6-diazabicyclo[3.2.1]octan-6-yl)oxy)sulfonyl)oxy)-2,2-dimethylpropanoate], the “oral bioavailability (% F)” value [1] is given as “greater than 10 % F”.

In the case of `CCCCCCCOC(=O)C(C)(C)COS(=O)(=O)ON1C(=O)N2C[C@H]1CC[C@H]2C(N)=O` [avibactam derivative (13), heptyl 3-(((((1R,2S,5R)-2-carbamoyl-7-oxo-1,6-diazabicyclo[3.2.1]octan-6-yl)oxy)sulfonyl)oxy)-2,2-dimethylpropanoate], the avibactam oral bioavailability [2] is listed as “greater than 50 % F”, the “oral bioavailability (% F)” value [1] is listed as “greater than 10 % F” and the avibactam oral bioavailability [3] is listed as “greater than 50 % F”.

In the case of `CC(C)(C)OC(=O)C(C)(C)COS(=O)(=O)ON1C(=O)N2C[C@H]1CC[C@H]2C(N)=O` [avibactam derivative (14), tert-butyl 3-(((((1R,2S,5R)-2-carbamoyl-7-oxo-1,6-diazabicyclo[3.2.1]octan-6-yl)oxy)sulfonyl)oxy)-2,2-dimethylpropanoate], the “oral bioavailability (% F)” value [1] is given as “greater than 10 % F”.

In the case of `CCCCCCOC(=O)CCC(C)(C)COS(=O)(=O)ON1C(=O)N2C[C@H]1CC[C@H]2C(N)=O` [avibactam derivative (36), hexyl 5-(((((1R,2S,5R)-2-carbamoyl-7-oxo-1,6-diazabicyclo[3.2.1]octan-6-yl)oxy)sulfonyl)oxy)-4,4-dimethylpentanoate], the “avibactam oral bioavailability (% F)” value [4] is listed as “greater than 10 % F”.

For `CCCCCCCOC(=O)CCC(C)(C)COS(=O)(=O)ON1C(=O)N2C[C@H]1CC[C@H]2C(N)=O` [avibactam derivative (37), heptyl 5-(((((1R,2S,5R)-2-carbamoyl-7-oxo-1,6-diazabicyclo[3.2.1]octan-6-yl)oxy)sulfonyl)oxy)-4,4-dimethylpentanoate], the “avibactam oral bioavailability (% F)” value [4] is given as “greater than 10 % F”.

In the case of `CCCOC(=O)C(C)(C)COS(=O)(=O)ON1C(=O)N2C[C@H]1CC[C@H]2C(N)=O` [avibactam derivative (57), propyl 3-(((((1R,2S,5R)-2-carbamoyl-7-oxo-1,6-diazabicyclo[3.2.1]octan-6-yl)oxy)sulfonyl)oxy)-2,2-dimethylpropanoate], the “avibactam oral bioavailability (% F)” value [4] is given as “greater than 10 % F”.

For `CCCCOC(=O)C(C)(C)COS(=O)(=O)ON1C(=O)N2C[C@H]1CC[C@H]2C(N)=O` [avibactam derivative (58), butyl 3-(((((1R,2S,5R)-2-carbamoyl-7-oxo-1,6-diazabicyclo[3.2.1]octan-6-yl)oxy)sulfonyl)oxy)-2,2-dimethylpropanoate], the “avibactam oral bioavailability (% F)” value [4] is listed as “greater than 10 % F”.

In the case of `C[C@H]1[C@H](NC(=O)/C(=N\OC(C)(C)C(=O)O)c2csc(N)n2)C(=O)N1S(=O)(=O)O` [aztreonam], the “MIC90 with addition of avibactam” value [5] was 0.5 µg/mL.

For `C=CC1=C(C(=O)O)N2C(=O)[C@@H](NC(=O)/C(=N\OCC(=O)O)c3csc(N)n3)[C@H]2SC1` [cefixime], the “MIC90 with addition of avibactam” value [5] was 1 µg/mL.

With `COCC1=C(C(=O)O)N2C(=O)[C@@H](NC(=O)/C(=N\OC)c3csc(N)n3)[C@H]2SC1` [cefpodoxime] the “Estimated MIC90” value [6] was greater than 32 µg/mL, the “Estimated MIC90” value [5] was greater than 32 µg/mL and the “MIC90 with addition of avibactam” value [5] was 4 µg/mL. For the same molecule, the “Estimated MIC90” value [7] was greater than 32 µg/mL, the “Estimated MIC90” value [8] was greater than 32 µg/mL and the “Estimated MIC90” value [9] was greater than 32 µg/mL.

With `C[C@@H](O)[C@H]1C(=O)N2C(C(=O)O)=C(S[C@H]3CC[S@@+]([O-])C3)S[C@H]12` [sulopenem] the “Estimated MIC90” value [6] was greater than 32 µg/mL, the “MIC90 with addition of avibactam” value [6] was 1 µg/mL and the “Estimated MIC90” value [5] was 8 µg/mL. For the same molecule, the “MIC90 with addition of avibactam” value [5] was 0.25 µg/mL, the “Estimated MIC90” value [7] was 0.12 µg/mL and the “Estimated MIC90” value [8] was 0.5 µg/mL. The “Estimated MIC90” value [9] was greater than 32 µg/mL and the “MIC90 with addition of avibactam” value [9] was 1 µg/mL.

For `C[C@@H](O)[C@H]1C(=O)N2C(C(=O)O)=C(SC3CN(C4=NCCS4)C3)[C@H](C)[C@H]12` [tebipenem], the “Estimated MIC90” value [6] was greater than 32 µg/mL, the “MIC90 with addition of avibactam” value [6] was 1 µg/mL and the “Estimated MIC90” value [5] was 2 µg/mL. For the same molecule, the “MIC90 with addition of avibactam” value [5] was 0.25 µg/mL, the “Estimated MIC90” value [7] was 0.12 µg/mL and the “Estimated MIC90” value [8] was 0.25 µg/mL. The “Estimated MIC90” value [9] was greater than 32 µg/mL and the “MIC90 with addition of avibactam” value [9] was 1 µg/mL.

In the case of “ethyl 3-(((((1R,2S,5R)-2-carbamoyl-7-oxo-1,6-diazabicyclo[3.2.1]octan-6-yl)oxy)sulfonyl)oxy)-2,2-dimethylpropanoate [avibactam derivative (3)]”, the avibactam oral bioavailability [2] is listed as “greater than 50 % F”, the “oral bioavailability (% F)” value [1] is listed as “greater than 10 % F” and the Thalf ([10]; single oral dose 300 mg) is listed as 1.51 (0.24) h. For the same molecule, the Thalf ([10]; single oral dose 900 mg) was 2.65 (0.46) h, the Thalf ([10]; single oral dose 1,350 mg) was 2.33 (0.18) h and the avibactam oral bioavailability [3] was “greater than 50 % F”. For the same molecule, the AUC0-INF ([11]; First Quartile, avibactam) was 5.9, the AUC0-INF ([11]; Max, avibactam) was 10.9 and the AUC0-INF ([11]; Mean, avibactam) was 7.6. The AUC0-INF ([11]; Min, avibactam) was 3.1, the AUC0-INF ([11]; ThirdQuartile, avibactam) was 10.1 and the AUCinf [11, 12] was “about 7,600 ng×h/mL”. For the same molecule, the T1/2 [11, 12] was “about 1.5 hours”, the T1/2 ([11]; oral 600 mg of avibactam derivative (3), healthy) was “about 1.5 hours” and the “dose of IV avibactam approximated by the oral dose” value ([11]; orally administered dose not given) was roughly 400 mg. The “dose of IV avibactam approximated by the oral dose” value ([11]; orally administered dose of 300 mg) was roughly 62.5 mg.
